Source: patent US9938322B2, “β-hairpin peptidomimetics” (priority 2013, dated 2018)
*1 amine or outer side, *2 acyl side, *3 side chain or, on linkers, in order; H or OH if unused. Where a SMILES comes first, the peptide text is derived from it. Side-chain parts run from the residue outwards. [ ]: non-standard residue; d: D form. The star is where a group is joined. Ala(thiazol-2-yl) = N[C@@H](Cc1nccs1)C(=O)O; Pro(3S-OH) = O=C(O)[C@H]1NCC[C@@H]1O; Cha = N[C@@H](CC1CCCCC1)C(=O)O; Chg = N[C@H](C(=O)O)C1CCCCC1; Tle = CC(C)(C)[C@H](N)C(=O)O; dDab = NCC[C@@H](N)C(=O)O; hSer = N[C@@H](CCO)C(=O)O; Orn = NCCC[C@H](N)C(=O)O; Dab = NCC[C@H](N)C(=O)O; Nva = CCC[C@H](N)C(=O)O; Dap = NC[C@H](N)C(=O)O; CO = O=C([*:1])[*:2]; NHiPr = CC(C)N*

System: human red blood cells (hRBC)
Assay: Hemolysis of human red blood cells
Type: cell-based
Conditions: red cells of human, 1 h, 100
How it was run: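 Washed fresh human erythrocytes (20% v/v, about 0.9×10^9 cells/ml final) incubated with peptide at 100 μg/ml for 1 h at 37° C with shaking. Supernatant OD540 read; hemolysis expressed relative to 2.5% Triton X-100 (100%) and PBS with 0.001% acetic acid (0%).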

| SMILES | Hemolysis at 100 μg/ml [%] |
| --- | --- |
| CC(C)C[C@@H]1NC(=O)[C@@H]2CCCN2C(=O)[C@H]2CCCN2C(=O)[C@H](CO)NC(=O)[C@H](C)NC(=O)[C@H](Cc2ccc(O)cc2)NC(=O)[C@H](CCN)NC(=O)[C@H](Cc2c[nH]c3ccccc23)NC(=O)[C@H](CCN)NC(=O)[C@@H](CCN)NC(=O)[C@H](CCCN)NC(=O)[C@H](CCN)NC(=O)[C@H](Cc2ccc(O)cc2)NC(=O)[C@H](CO)NC1=O [compound 31] (cyclo(LSY[Dab][Orn][dDab][Dab]W[Dab]YAS[dP]P)) | 1 |
| CC(C)C[C@@H]1NC(=O)[C@@H]2CCCN2C(=O)[C@H]2CCCN2C(=O)[C@H](CO)NC(=O)[C@H](C)NC(=O)[C@H](C2CCCCC2)NC(=O)[C@H](CCN)NC(=O)[C@H](Cc2c[nH]c3ccccc23)NC(=O)[C@H](CCN)NC(=O)[C@H](CCN)NC(=O)[C@H](CCCN)NC(=O)[C@H](CCN)NC(=O)[C@H](Cc2ccc(O)cc2)NC(=O)[C@H](CO)NC1=O [compound 94] (cyclo(LSY[Dab][Orn][Dab][Dab]W[Dab][Chg]AS[dP]P)) | 0 |
| C[C@@H]1NC(=O)[C@H](Cc2c[nH]c3ccccc23)NC(=O)[C@@H]2CCCN2C(=O)[C@H]2CCCN2C(=O)[C@H](CO)NC(=O)[C@H](Cc2nccs2)NC(=O)[C@H](C(C)(C)C)NC(=O)[C@H](CCN)NC(=O)[C@H](Cc2c[nH]c3ccccc23)NC(=O)[C@H](CCN)NC(=O)[C@@H](CCN)NC(=O)[C@H](CCCN)NC(=O)[C@H](CCN)NC(=O)[C@H](CC2CCCCC2)NC1=O [compound 7] (cyclo(WA[Cha][Dab][Orn][dDab][Dab]W[Dab][Tle][Ala(thiazol-2-yl)]S[dP]P)) | 8 |
| CC(C)C[C@@H]1NC(=O)[C@@H]2CCCN2C(=O)[C@H]2CCCN2C(=O)[C@H](CO)NC(=O)[C@H](C)NC(=O)[C@H](C(C)C)NC(=O)[C@H](CCN)NC(=O)[C@H](Cc2c[nH]c3ccccc23)NC(=O)[C@H](CCN)NC(=O)[C@@H](CCN)NC(=O)[C@H](CCCN)NC(=O)[C@H](CCN)NC(=O)[C@H](Cc2ccc(O)cc2)NC(=O)[C@H](CO)NC1=O [compound 35] (cyclo(LSY[Dab][Orn][dDab][Dab]W[Dab]VAS[dP]P)) | 1 |
| C[C@@H]1NC(=O)[C@H](C2CCCCC2)NC(=O)[C@H](CCN)NC(=O)[C@H](Cc2c[nH]c3ccccc23)NC(=O)[C@H](CCN)NC(=O)[C@@H](CCN)NC(=O)[C@H](CCCN)NC(=O)[C@H](CCN)NC(=O)[C@H](C(C)(C)C)NC(=O)[C@H](CO)NC(=O)[C@H](Cc2ccc(O)cc2)NC(=O)[C@@H]2CCCN2C(=O)[C@H]2CCCN2C(=O)[C@H](CO)NC1=O [compound 69] (cyclo(YS[Tle][Dab][Orn][dDab][Dab]W[Dab][Chg]AS[dP]P)) | 7 |
| CCC[C@@H]1NC(=O)[C@@H]2CCCN2C(=O)[C@H]2CCCN2C(=O)[C@H](CO)NC(=O)[C@H](C)NC(=O)[C@H](C2CCCCC2)NC(=O)[C@H](CCN)NC(=O)[C@H](Cc2c[nH]c3ccccc23)NC(=O)[C@H](CCN)NC(=O)[C@@H](CCN)NC(=O)[C@H](CCCN)NC(=O)[C@H](CCN)NC(=O)[C@H](Cc2ccc(O)cc2)NC(=O)[C@H](CO)NC1=O [compound 89] (cyclo([Nva]SY[Dab][Orn][dDab][Dab]W[Dab][Chg]AS[dP]P)) | 0 |
| CC[C@H](C)[C@@H]1NC(=O)[C@@H]2CCCN2C(=O)[C@H]2CCCN2C(=O)[C@H](CO)NC(=O)[C@H](C)NC(=O)[C@H](Cc2c[nH]c3ccccc23)NC(=O)[C@H](CCN)NC(=O)[C@H](Cc2c[nH]c3ccccc23)NC(=O)[C@H](CCN)NC(=O)[C@@H](CCN)NC(=O)[C@H](CCCN)NC(=O)[C@H](CCN)NC(=O)[C@H](Cc2ccc(O)cc2)NC(=O)[C@H](CO)NC1=O [compound 110] (cyclo(ISY[Dab][Orn][dDab][Dab]W[Dab]WAS[dP]P)) | 1 |
| CC(C)C[C@@H]1NC(=O)[C@@H]2CCCN2C(=O)[C@H]2CCCN2C(=O)[C@H](CO)NC(=O)[C@H](C)NC(=O)[C@H](C(C)(C)C)NC(=O)[C@H](CCN)NC(=O)[C@H](Cc2c[nH]c3ccccc23)NC(=O)[C@H](CCN)NC(=O)[C@@H](CCN)NC(=O)[C@H](CCCN)NC(=O)[C@H](CCN)NC(=O)[C@H](CC2CCCCC2)NC(=O)[C@H](CO)NC1=O [compound 135] (cyclo(LS[Cha][Dab][Orn][dDab][Dab]W[Dab][Tle]AS[dP]P)) | 5 |
| CC(C)C[C@@H]1NC(=O)[C@@H]2CCCN2C(=O)[C@H]2CCCN2C(=O)[C@H](CO)NC(=O)[C@H](C)NC(=O)[C@H](C(C)(C)C)NC(=O)[C@H](CCN)NC(=O)[C@H](Cc2c[nH]c3ccccc23)NC(=O)[C@H](CCN)NC(=O)[C@@H](CCN)NC(=O)[C@H](CCCN)NC(=O)[C@H](CCN)NC(=O)[C@H](CC2CCCCC2)NC(=O)[C@H](CNC(=O)NC(C)C)NC1=O [compound 40] (cyclo(L[Dap]([CO-NHiPr])[Cha][Dab][Orn][dDab][Dab]W[Dab][Tle]AS[dP]P)) | 1 |
| CC(C)C[C@@H]1NC(=O)[C@@H]2[C@@H](O)CCN2C(=O)[C@H]2CCCN2C(=O)[C@H](CO)NC(=O)[C@H](C)NC(=O)[C@H](C(C)(C)C)NC(=O)[C@H](CCN)NC(=O)[C@H](Cc2c[nH]c3ccccc23)NC(=O)[C@H](CCN)NC(=O)[C@@H](CCN)NC(=O)[C@H](CCCN)NC(=O)[C@H](CCN)NC(=O)[C@H](CC2CCCCC2)NC(=O)[C@H](CO)NC1=O [compound 58] (cyclo(AS[dP][Pro(3S-OH)]LS[Cha][Dab][Orn][dDab][Dab]W[Dab][Tle])) | 1 |
| CC(C)C[C@@H]1NC(=O)[C@@H]2CCCN2C(=O)[C@H]2CCCN2C(=O)[C@H](CO)NC(=O)[C@H](C)NC(=O)[C@H](Cc2c[nH]c3ccccc23)NC(=O)[C@H](CCN)NC(=O)[C@H](Cc2c[nH]c3ccccc23)NC(=O)[C@H](CCN)NC(=O)[C@@H](CCN)NC(=O)[C@H](CCCN)NC(=O)[C@H](CCN)NC(=O)[C@H](Cc2ccc(O)cc2)NC(=O)[C@H](CO)NC1=O [compound 34] (cyclo(LSY[Dab][Orn][dDab][Dab]W[Dab]WAS[dP]P)) | 1 |
| C[C@@H]1NC(=O)[C@H](C(C)(C)C)NC(=O)[C@H](CCN)NC(=O)[C@H](Cc2c[nH]c3ccccc23)NC(=O)[C@H](CCN)NC(=O)[C@@H](CCN)NC(=O)[C@H](CCCN)NC(=O)[C@H](CCN)NC(=O)[C@H](CC2CCCCC2)NC(=O)[C@H](CCO)NC(=O)[C@H](Cc2c[nH]c3ccccc23)NC(=O)[C@@H]2CCCN2C(=O)[C@H]2CCCN2C(=O)[C@H](CO)NC1=O [compound 18] (cyclo(W[hSer][Cha][Dab][Orn][dDab][Dab]W[Dab][Tle]AS[dP]P)) | 3 |
| CC(C)NC(=O)NC[C@@H]1NC(=O)[C@H](C)NC(=O)[C@H](C(C)(C)C)NC(=O)[C@H](CCN)NC(=O)[C@H](Cc2c[nH]c3ccccc23)NC(=O)[C@H](CCN)NC(=O)[C@@H](CCN)NC(=O)[C@H](CCCN)NC(=O)[C@H](CCN)NC(=O)[C@H](CC2CCCCC2)NC(=O)[C@H](C)NC(=O)[C@H](Cc2c[nH]c3ccccc23)NC(=O)[C@@H]2CCCN2C(=O)[C@H]2CCCN2C1=O [compound 20] (cyclo(WA[Cha][Dab][Orn][dDab][Dab]W[Dab][Tle]A[Dap]([CO-NHiPr])[dP]P)) | 4 |
| C[C@@H]1NC(=O)[C@H](C(C)(C)C)NC(=O)[C@H](CCN)NC(=O)[C@H](Cc2c[nH]c3ccccc23)NC(=O)[C@H](CCN)NC(=O)[C@H](CCN)NC(=O)[C@H](CCCN)NC(=O)[C@H](CCN)NC(=O)[C@H](Cc2ccc(O)cc2)NC(=O)[C@H](CO)NC(=O)[C@H](Cc2c[nH]c3ccccc23)NC(=O)[C@@H]2CCCN2C(=O)[C@H]2CCCN2C(=O)[C@H](CO)NC1=O [compound 74] (cyclo(WSY[Dab][Orn][Dab][Dab]W[Dab][Tle]AS[dP]P)) | 0 |
